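GI50 = concentration required for 50% inhibition of growth. At the TGI there is no net growth.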
What was measured:
Test in all cases: inhibition of tumour cell growth, NCI panel, 384-well format
[1] = test system: HCT-116 colon
[2] = test system: HOP-92 NSCLC
[3] = test system: UACC-62 melanoma
[4] = test system: KM12 colon
[5] = test system: UACC-257 melanoma
[6] = test system: SNB-19 CNS
[7] = test system: OVCAR-4 ovarian
[8] = test system: T-47D breast
[9] = test system: COLO 205 colon
[10] = test system: M14 melanoma
[11] = test system: SW-620 colon
[12] = test system: U251 glioblastoma
[13] = test system: OVCAR-8 ovarian
[14] = test system: UO-31 renal
[15] = test system: NCI-H322M lung
[16] = test system: LOX IMVI melanoma
[17] = test system: RXF 393 renal
[18] = test system: OVCAR-5 ovarian
[19] = test system: SK-OV-3 ovarian
[20] = test system: CAKI-1 renal
[21] = test system: RPMI-8226 leukemia
[22] = test system: MOLT-4 leukemia
[23] = test system: MCF7 breast
[24] = test system: MDA-MB-231 breast
[25] = test system: IGROV1 ovarian
[26] = test system: SNB-75 CNS
[27] = test system: ACHN renal
[28] = test system: PC-3 prostate
[29] = test system: MALME-3M melanoma
[30] = test system: HCT-15 colon

CC(C)Oc1ccc(C(=O)N[C@H](CNC(=O)CN(C)C)Cc2ccc(-c3cn4cccc([C@H](C)O)c4n3)cc2)cc1Cl
TGI [1]: 12.2 µM
GI50 [2]: 0.055 µM
TGI [2]: 12.3 µM
GI50 [3]: < 0.0177 µM
TGI [3]: 9.18 µM
GI50 [4]: < 0.0209 µM
TGI [4]: 13.8 µM
GI50 [5]: < 0.0219 µM
TGI [5]: 1.82 µM
GI50 [6]: < 0.0174 µM
TGI [6]: 14.8 µM
GI50 [7]: < 0.0209 µM
TGI [7]: 16.1 µM
GI50 [8]: < 0.0174 µM
TGI [8]: 12.1 µM
GI50 [9]: 0.0214 µM
TGI [9]: 0.0427 µM
GI50 [10]: < 0.016 µM
TGI [10]: 0.269 µM
GI50 [11]: < 0.0198 µM
TGI [11]: 13.4 µM
GI50 [12]: < 0.0175 µM
TGI [12]: 11.5 µM
GI50 [13]: < 0.019 µM
TGI [13]: 15.9 µM
GI50 [14]: 0.0492 µM
TGI [14]: 17 µM
GI50 [15]: < 0.0257 µM
TGI [15]: 16.7 µM
GI50 [16]: 0.0379 µM
TGI [16]: 10.3 µM
GI50 [17]: < 0.0185 µM
GI50 [18]: < 0.0207 µM
TGI [18]: 14.4 µM
GI50 [19]: < 0.0161 µM
TGI [19]: 8.72 µM
GI50 [20]: < 0.0283 µM
TGI [20]: 15.4 µM
GI50 [21]: < 0.0137 µM
TGI [21]: < 0.0184 µM
GI50 [22]: < 0.0111 µM
TGI [22]: < 0.0159 µM
GI50 [23]: < 0.023 µM
TGI [23]: 13.5 µM
GI50 [24]: < 0.0196 µM
TGI [24]: 4.27 µM
TGI [25]: 20.9 µM
GI50 [26]: 0.0446 µM
TGI [26]: 16.6 µM
GI50 [27]: 0.0537 µM
TGI [27]: 20.1 µM
GI50 [28]: < 0.0203 µM
TGI [28]: 12.8 µM
GI50 [29]: 0.182 µM
TGI [29]: 3.16 µM
GI50 [30]: 0.0847 µM
TGI [30]: 15.8 µM

Source: PubChem BioAssay (NCI)
